Where two headings read alike, the source gives them in different places.
How the values were obtained:
[1] = BIC plasma pharmacokinetics, Phase 1 open-label single-dose DDI study GS-US-380-3909 (B/F/TAF 50/200/25 mg with antacid or mineral supplements); format: in vivo, human; conditions: both sexes, human, plasma, oral; for AUC(0-t): BIC plasma AUClast; for Tmax: BIC plasma Tmax, median (Q1, Q3)
Protocol: Eligible participants were adult (18–45 years) males and non-pregnant, non-lactating females in good general health at a screening evaluation performed no more than 28 days before the first study dose. […] Full eligibility criteria are available in the supplement. All prescription and over-the-counter medications except vitamins, acetaminophen, ibuprofen, and hormonal contraceptives were not permitted during study participation. Three dosing cohorts were evaluated (Table 1). […] Vitamins and/or other supplements were not permitted on the dosing day. […] Participants received maximum-strength antacid oral suspension (four teaspoons; 20 mL; 1,600 mg aluminum hydroxide/1,600 mg magnesium hydroxide/160 mg simethicone; referred to as “aluminum/magnesium-containing antacid”) on Day 9, calcium carbonate (1,200 mg; 2 × 600 mg tablets) on Day 17, and ferrous fumarate (1 × 324 mg tablet) on Day 25. […] All samples were analyzed within the timeframe determined using frozen stability storage data. […] PK parameters were estimated using Phoenix WinNonlin software (Version 6.4, Pharsight Corporation, Princeton, NJ, USA) using standard noncompartmental analysis methods. […] The estimated 90% CIs were compared to a prespecified lack of DDI boundary of 70%–143%. […] A minimum of 12 evaluable participants in each cohort was calculated to be needed to reject the null hypothesis (i.e., the 90% CI for the GLSM ratio for each PK parameter was outside the prespecified boundary) with ≥90% power.

[2] = test system: HIV-1 integrase-DNA complexes; conditions: cited from earlier work
[3] = set-up: method as in earlier work; conditions: cited from earlier work

Compound: O=C(NCc1c(F)cc(F)cc1F)c1cn2c(c(O)c1=O)C(=O)N1[C@H]3CC[C@H](C3)O[C@@H]1C2 [BIC, bictegravir]
- AUC(0-inf) ([1]; BIC plasma AUCinf, mean (%CV), Cohort 3, B/F/TAF alone (fasted), N = 14): 93700 ng·h/mL
- AUC(0-inf) ([1]; BIC plasma AUCinf, mean (%CV), Cohort 3 fed, B/F/TAF + aluminum/magnesium-containing antacid simultaneous, N = 14): 50800 ng·h/mL
- AUC(0-inf) ([1]; BIC plasma AUCinf, mean (%CV), Cohort 3 fed, B/F/TAF + calcium carbonate simultaneous, N = 14): 94800 ng·h/mL
- AUC(0-inf) ([1]; BIC plasma AUCinf, mean (%CV), Cohort 3 fed, B/F/TAF + ferrous fumarate simultaneous, N = 14): 77300 ng·h/mL
- AUC(0-t) ([1]; mean (%CV), Cohort 1 fasted, B/F/TAF + aluminum/magnesium-containing antacid simultaneous, N = 14): 26200 ng·h/mL
- AUC(0-t) ([1]; mean (%CV), Cohort 1 fasted, B/F/TAF + calcium carbonate simultaneous, N = 14): 80400 ng·h/mL
- AUC(0-t) ([1]; mean (%CV), Cohort 1 fasted, B/F/TAF + ferrous fumarate simultaneous, N = 14): 43400 ng·h/mL
- AUC(0-t) ([1]; mean (%CV), Cohort 1 fasted, B/F/TAF alone, N = 14): 117000 ng·h/mL
- AUC(0-t) ([1]; mean (%CV), Cohort 2 fasted, B/F/TAF 2 hours after aluminum/magnesium-containing antacid, N = 13): 63400 ng·h/mL
- AUC(0-t) ([1]; mean (%CV), Cohort 2 fasted, B/F/TAF 2 hours before aluminum/magnesium-containing antacid, N = 13): 111000 ng·h/mL
- AUC(0-t) ([1]; mean (%CV), Cohort 2 fasted, B/F/TAF alone, N = 14): 125000 ng·h/mL
- AUC(0-t) ([1]; mean (%CV), Cohort 3, B/F/TAF alone (fasted), N = 14): 91200 ng·h/mL
- AUC(0-t) ([1]; mean (%CV), Cohort 3 fed, B/F/TAF + aluminum/magnesium-containing antacid simultaneous, N = 14): 49200 ng·h/mL
- AUC(0-t) ([1]; mean (%CV), Cohort 3 fed, B/F/TAF + calcium carbonate simultaneous, N = 14): 91500 ng·h/mL
- AUC(0-t) ([1]; mean (%CV), Cohort 3 fed, B/F/TAF + ferrous fumarate simultaneous, N = 14): 74500 ng·h/mL
- concentration at 24 h ([1]; BIC plasma C24, mean (%CV), Cohort 1 fasted, B/F/TAF + aluminum/magnesium-containing antacid simultaneous, N = 14): 430 ng/mL
- concentration at 24 h ([1]; BIC plasma C24, mean (%CV), Cohort 1 fasted, B/F/TAF + calcium carbonate simultaneous, N = 14): 1220 ng/mL
- concentration at 24 h ([1]; BIC plasma C24, mean (%CV), Cohort 1 fasted, B/F/TAF + ferrous fumarate simultaneous, N = 14): 670 ng/mL
- concentration at 24 h ([1]; BIC plasma C24, mean (%CV), Cohort 1 fasted, B/F/TAF alone, N = 14): 1800 ng/mL
- concentration at 24 h ([1]; BIC plasma C24, mean (%CV), Cohort 2 fasted, B/F/TAF 2 hours after aluminum/magnesium-containing antacid, N = 13): 990 ng/mL
- concentration at 24 h ([1]; BIC plasma C24, mean (%CV), Cohort 2 fasted, B/F/TAF 2 hours before aluminum/magnesium-containing antacid, N = 13): 1700 ng/mL
- concentration at 24 h ([1]; BIC plasma C24, mean (%CV), Cohort 2 fasted, B/F/TAF alone, N = 14): 2010 ng/mL
- concentration at 24 h ([1]; BIC plasma C24, mean (%CV), Cohort 3, B/F/TAF alone (fasted), N = 14): 1410 ng/mL
- concentration at 24 h ([1]; BIC plasma C24, mean (%CV), Cohort 3 fed, B/F/TAF + aluminum/magnesium-containing antacid simultaneous, N = 14): 800 ng/mL
- concentration at 24 h ([1]; BIC plasma C24, mean (%CV), Cohort 3 fed, B/F/TAF + calcium carbonate simultaneous, N = 14): 1460 ng/mL
- concentration at 24 h ([1]; BIC plasma C24, mean (%CV), Cohort 3 fed, B/F/TAF + ferrous fumarate simultaneous, N = 14): 1230 ng/mL
- Cmax ([1]; BIC plasma Cmax, mean (%CV), Cohort 1 fasted, B/F/TAF + aluminum/magnesium-containing antacid simultaneous, N = 14): 1200 ng/mL
- Cmax ([1]; BIC plasma Cmax, mean (%CV), Cohort 1 fasted, B/F/TAF + ferrous fumarate simultaneous, N = 14): 1670 ng/mL
- Cmax ([1]; BIC plasma Cmax, mean (%CV), Cohort 2 fasted, B/F/TAF 2 hours after aluminum/magnesium-containing antacid, N = 13): 2740 ng/mL
- Cmax ([1]; BIC plasma Cmax, mean (%CV), Cohort 3 fed, B/F/TAF + aluminum/magnesium-containing antacid simultaneous, N = 14): 2450 ng/mL
- Cmax ([1]; BIC plasma Cmax, mean (%CV), Cohort 3 fed, B/F/TAF + calcium carbonate simultaneous, N = 14): 4110 ng/mL
- Tmax ([1]; Cohort 1 fasted, B/F/TAF + ferrous fumarate simultaneous, N = 14): 3.5 h
- Tmax ([1]; Cohort 3 fed, B/F/TAF + aluminum/magnesium-containing antacid simultaneous, N = 14): 3.5 h
- Tmax ([1]; Cohort 3 fed, B/F/TAF + calcium carbonate simultaneous, N = 14): 3.5 h
- Tmax ([1]; Cohort 3 fed, B/F/TAF + ferrous fumarate simultaneous, N = 14): 4 h
- AUC(0-inf) ([1]; Cohort 1 fasted, B/F/TAF with aluminum/magnesium-containing antacid simultaneous, N = 14, read-out: AUCinf, test GLSM): 25200 ng·h/mL
- concentration at 24 h ([1]; Cohort 1 fasted, B/F/TAF with aluminum/magnesium-containing antacid simultaneous, N = 14, read-out: C24, test GLSM): 380 ng/mL
- Cmax ([1]; Cohort 1 fasted, B/F/TAF with aluminum/magnesium-containing antacid simultaneous, N = 14, read-out: Cmax, test GLSM): 1100 ng/mL
- AUC(0-inf) ([1]; Cohort 1 fasted, B/F/TAF with calcium carbonate simultaneous, N = 14, read-out: AUCinf, test GLSM): 79100 ng·h/mL
- concentration at 24 h ([1]; Cohort 1 fasted, B/F/TAF with calcium carbonate simultaneous, N = 14, read-out: C24, test GLSM): 1130 ng/mL
- Cmax ([1]; Cohort 1 fasted, B/F/TAF with calcium carbonate simultaneous, N = 14, read-out: Cmax, test GLSM): 3230 ng/mL
- AUC(0-inf) ([1]; Cohort 1 fasted, B/F/TAF with ferrous fumarate simultaneous, N = 14, read-out: AUCinf, test GLSM): 44000 ng·h/mL
- concentration at 24 h ([1]; Cohort 1 fasted, B/F/TAF with ferrous fumarate simultaneous, N = 14, read-out: C24, test GLSM): 640 ng/mL
- Cmax ([1]; Cohort 1 fasted, B/F/TAF with ferrous fumarate simultaneous, N = 14, read-out: Cmax, test GLSM): 1610 ng/mL
- AUC(0-inf) ([1]; Cohort 1 fasted, BIC alone (N = 14), read-out: AUCinf, reference GLSM): 119000 ng·h/mL
- concentration at 24 h ([1]; Cohort 1 fasted, BIC alone (N = 14), read-out: C24, reference GLSM): 1740 ng/mL
- AUC(0-inf) ([1]; Cohort 2 fasted, B/F/TAF 2 h after aluminum/magnesium-containing antacid, N = 14, read-out: AUCinf, test GLSM): 61100 ng·h/mL
- concentration at 24 h ([1]; Cohort 2 fasted, B/F/TAF 2 h after aluminum/magnesium-containing antacid, N = 14, read-out: C24, test GLSM): 900 ng/mL
- Cmax ([1]; Cohort 2 fasted, B/F/TAF 2 h after aluminum/magnesium-containing antacid, N = 14, read-out: Cmax, test GLSM): 2430 ng/mL
- AUC(0-inf) ([1]; Cohort 2 fasted, B/F/TAF 2 h before aluminum/magnesium-containing antacid, N = 14, read-out: AUCinf, test GLSM): 111000 ng·h/mL
- concentration at 24 h ([1]; Cohort 2 fasted, B/F/TAF 2 h before aluminum/magnesium-containing antacid, N = 14, read-out: C24, test GLSM): 1650 ng/mL
- AUC(0-inf) ([1]; Cohort 2 fasted, BIC alone (N = 14), read-out: AUCinf, reference GLSM): 128000 ng·h/mL
- concentration at 24 h ([1]; Cohort 2 fasted, BIC alone (N = 14), read-out: C24, reference GLSM): 1930 ng/mL
- Cmax ([1]; Cohort 2 fasted, BIC alone (N = 14), read-out: Cmax, reference GLSM): 5840 ng/mL
- AUC(0-inf) ([1]; Cohort 3, BIC alone (N = 14), fasted, read-out: AUCinf, reference GLSM): 89900 ng·h/mL
- concentration at 24 h ([1]; Cohort 3, BIC alone (N = 14), fasted, read-out: C24, reference GLSM): 1350 ng/mL
- AUC(0-inf) ([1]; Cohort 3 fed, B/F/TAF with aluminum/magnesium-containing antacid simultaneous, N = 14, read-out: AUCinf, test GLSM): 47900 ng·h/mL
- concentration at 24 h ([1]; Cohort 3 fed, B/F/TAF with aluminum/magnesium-containing antacid simultaneous, N = 14, read-out: C24, test GLSM): 750 ng/mL
- Cmax ([1]; Cohort 3 fed, B/F/TAF with aluminum/magnesium-containing antacid simultaneous, N = 14, read-out: Cmax, test GLSM): 2340 ng/mL
- AUC(0-inf) ([1]; Cohort 3 fed, B/F/TAF with calcium carbonate simultaneous, N = 14, read-out: AUCinf, test GLSM): 92900 ng·h/mL
- concentration at 24 h ([1]; Cohort 3 fed, B/F/TAF with calcium carbonate simultaneous, N = 14, read-out: C24, test GLSM): 1430 ng/mL
- Cmax ([1]; Cohort 3 fed, B/F/TAF with calcium carbonate simultaneous, N = 14, read-out: Cmax, test GLSM): 4070 ng/mL
- AUC(0-inf) ([1]; Cohort 3 fed, B/F/TAF with ferrous fumarate simultaneous, N = 14, read-out: AUCinf, test GLSM): 75400 ng·h/mL
- concentration at 24 h ([1]; Cohort 3 fed, B/F/TAF with ferrous fumarate simultaneous, N = 14, read-out: C24, test GLSM): 1200 ng/mL
- Cmax ([1]; Cohort 3 fed, B/F/TAF with ferrous fumarate simultaneous, N = 14, read-out: Cmax, test GLSM): 3410 ng/mL
- dissociation half-life [2]: ~ 163 hours
- half-life for BIC (median T1/2) [3]: ~ 17 hours

Source: PMC12777568 (Antimicrobial Agents and Chemotherapy, 2025)
